Test results taken from ChEMBL document CHEMBL1201862, “PubChem BioAssay data set” (2004).
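Protocol summary: plate cells (96-well), add compound at 5 concentrations, incubate 48 h, interpolate endpoints linearly. GI50 = concentration required for 50% inhibition of growth.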 Active and inactive are the calls of the source. Rule as the data show it: active = GI50 up to about 1.1 µM and inactive = higher.

Columns and labels:
Experiment in all cases: NCI anticancer screen, dose series, 48 h
CCRF-CEM = test system: CCRF-CEM
MDA-MB-231 = test system: MDA-MB-231
SK-MEL-28 = test system: SK-MEL-28
SK-MEL-2 = test system: SK-MEL-2
NCI-H23 = test system: NCI-H23
T47D = test system: T47D
SF-268 = test system: SF-268
A498 = test system: A498
HCT-15 = test system: HCT-15
PC-3 = test system: PC-3
LOX IMVI = test system: LOX IMVI
OVCAR-5 = test system: OVCAR-5
OVCAR-4 = test system: OVCAR-4
Malme-3M = test system: Malme-3M
IGROV-1 = test system: IGROV-1
EKVX = test system: EKVX
HL-60 = test system: HL-60
HCC 2998 = test system: HCC 2998
M14 = test system: M14
BT-549 = test system: BT-549
CAKI-1 = test system: CAKI-1
SN12C = test system: SN12C
UO-31 = test system: UO-31
HCT-116 = test system: HCT-116
ACHN = test system: ACHN
RXF 393 = test system: RXF 393
NCI-H226 = test system: NCI-H226
HOP-92 = test system: HOP-92
K562 = test system: K562
SK-MEL-5 = test system: SK-MEL-5
TK-10 = test system: TK-10
NCI/ADR-RES = test system: NCI/ADR-RES
MDA-N = test system: MDA-N
HOP-62 = test system: HOP-62
OVCAR-8 = test system: OVCAR-8
HT-29 = test system: HT-29
SNB-19 = test system: SNB-19
SF-295 = test system: SF-295
UACC-62 = test system: UACC-62
Hs-578T = test system: Hs-578T
KM12 = test system: KM12
786-0 = test system: 786-0
SW-620 = test system: SW-620
NCI-H522 = test system: NCI-H522
DU-145 = test system: DU-145
MDA-MB-435 = test system: MDA-MB-435
UACC-257 = test system: UACC-257
A549 = test system: A549
SF-539 = test system: SF-539
RPMI-8226 = test system: RPMI-8226
U-251 = test system: U-251
MCF7 = test system: MCF7
OVCAR-3 = test system: OVCAR-3
COLO 205 = test system: COLO 205
MOLT-4 = test system: MOLT-4
SK-OV-3 = test system: SK-OV-3
SR = test system: SR
SNB-75 = test system: SNB-75

CC(C)(C)OC(=O)NCC(c1c[nH]c2ccc(Br)cc12)c1c[nH]c2ccc(Br)cc12
GI50 (CCRF-CEM): 5.12 µM (inactive) | GI50 (MDA-MB-231): 10.5 µM (inactive) | GI50 (SK-MEL-28): 16.3 µM (inactive) | GI50 (SK-MEL-2): 8.04 µM (inactive) | GI50 (NCI-H23): 4.33 µM (inactive) | GI50 (T47D): 10 µM (inactive) | GI50 (SF-268): 8.43 µM (inactive) | GI50 (A498): 14.5 µM (inactive) | GI50 (HCT-15): 7.73 µM | GI50 (PC-3): 3.55 µM (inactive) | GI50 (LOX IMVI): 7.03 µM (inactive) | GI50 (OVCAR-5): 7.48 µM (inactive) | GI50 (OVCAR-4): 7.36 µM (inactive) | GI50 (Malme-3M): 18.3 µM (inactive) | GI50 (IGROV-1): 4.07 µM (inactive) | GI50 (EKVX): 4.52 µM (inactive) | GI50 (HL-60): 11.7 µM (inactive) | GI50 (HCC 2998): 5.18 µM (inactive) | GI50 (M14): 3.56 µM (inactive) | GI50 (BT-549): 12.4 µM (inactive) | GI50 (CAKI-1): 11 µM (inactive) | GI50 (SN12C): 5.13 µM (inactive) | GI50 (UO-31): 7.11 µM (inactive) | GI50 (HCT-116): 4.14 µM (inactive) | GI50 (ACHN): 5.96 µM (inactive) | GI50 (RXF 393): 11.6 µM (inactive) | GI50 (NCI-H226): 16.6 µM (inactive) | GI50 (HOP-92): 3.76 µM (inactive) | GI50 (K562): 15.9 µM (inactive) | GI50 (SK-MEL-5): 6.38 µM (inactive) | GI50 (TK-10): 12.6 µM (inactive) | GI50 (NCI/ADR-RES): 6.82 µM (inactive) | GI50 (MDA-N): 8.63 µM (inactive) | GI50 (HOP-62): 12.7 µM (inactive) | GI50 (OVCAR-8): 13.4 µM (inactive) | GI50 (HT-29): 3.34 µM (inactive) | GI50 (SNB-19): 11.2 µM (inactive) | GI50 (SF-295): 9.89 µM (inactive) | GI50 (UACC-62): 11.1 µM (inactive) | GI50 (Hs-578T): 19.3 µM (inactive) | GI50 (KM12): 4.16 µM (inactive) | GI50 (786-0): 3.85 µM (inactive) | GI50 (SW-620): 6.64 µM (inactive) | GI50 (NCI-H522): 10.7 µM (inactive) | GI50 (DU-145): 11.7 µM (inactive) | GI50 (MDA-MB-435): 11.7 µM (inactive) | GI50 (UACC-257): 13 µM (inactive) | GI50 (A549): 5.18 µM (inactive) | GI50 (SF-539): 14.4 µM (inactive) | GI50 (RPMI-8226): > 100 µM (inactive) | GI50 (U-251): 6.43 µM (inactive) | GI50 (MCF7): 5.41 µM (inactive) | GI50 (OVCAR-3): 4.54 µM (inactive) | GI50 (COLO 205): 5 µM (inactive)

CCOC(=O)C(Cl)(NC(=O)c1c(F)c(F)c(F)c(F)c1F)C(F)(F)F (stereo unspecified)
GI50 (CCRF-CEM): > 100 µM (inactive) | GI50 (MDA-MB-231): > 100 µM (inactive) | GI50 (SK-MEL-28): > 100 µM (inactive) | GI50 (SK-MEL-2): > 100 µM (inactive) | GI50 (NCI-H23): > 100 µM (inactive) | GI50 (T47D): > 100 µM (inactive) | GI50 (SF-268): > 100 µM (inactive) | GI50 (HCT-15): > 100 µM | GI50 (PC-3): > 100 µM (inactive) | GI50 (LOX IMVI): > 100 µM (inactive) | GI50 (OVCAR-5): > 100 µM (inactive) | GI50 (OVCAR-4): > 100 µM (inactive) | GI50 (Malme-3M): > 100 µM (inactive) | GI50 (MOLT-4): > 100 µM (inactive) | GI50 (IGROV-1): > 100 µM (inactive) | GI50 (EKVX): 75.9 µM (inactive) | GI50 (HL-60): 22.1 µM (inactive) | GI50 (HCC 2998): > 100 µM (inactive) | GI50 (M14): > 100 µM (inactive) | GI50 (SK-OV-3): > 100 µM (inactive) | GI50 (BT-549): > 100 µM (inactive) | GI50 (CAKI-1): 20 µM (inactive) | GI50 (SN12C): > 100 µM (inactive) | GI50 (UO-31): > 100 µM (inactive) | GI50 (HCT-116): > 100 µM (inactive) | GI50 (ACHN): > 100 µM (inactive) | GI50 (RXF 393): > 100 µM (inactive) | GI50 (NCI-H226): > 100 µM (inactive) | GI50 (HOP-92): 28.3 µM (inactive) | GI50 (K562): > 100 µM (inactive) | GI50 (SK-MEL-5): > 100 µM (inactive) | GI50 (TK-10): > 100 µM (inactive) | GI50 (NCI/ADR-RES): > 100 µM (inactive) | GI50 (MDA-N): > 100 µM (inactive) | GI50 (HOP-62): > 100 µM (inactive) | GI50 (OVCAR-8): > 100 µM (inactive) | GI50 (SR): 9.4 µM (inactive) | GI50 (HT-29): > 100 µM (inactive) | GI50 (SNB-19): > 100 µM (inactive) | GI50 (SF-295): > 100 µM (inactive) | GI50 (UACC-62): > 100 µM (inactive) | GI50 (Hs-578T): > 100 µM (inactive) | GI50 (KM12): > 100 µM (inactive) | GI50 (786-0): > 100 µM (inactive) | GI50 (SNB-75): > 100 µM (inactive) | GI50 (SW-620): > 100 µM (inactive) | GI50 (NCI-H522): 19.5 µM (inactive) | GI50 (DU-145): > 100 µM (inactive) | GI50 (MDA-MB-435): > 100 µM (inactive) | GI50 (UACC-257): > 100 µM (inactive) | GI50 (A549): > 100 µM (inactive) | GI50 (SF-539): > 100 µM (inactive) | GI50 (RPMI-8226): > 100 µM (inactive) | GI50 (U-251): > 100 µM (inactive) | GI50 (MCF7): > 100 µM (inactive) | GI50 (OVCAR-3): > 100 µM (inactive) | GI50 (COLO 205): > 100 µM (inactive)
